According to ChEMBL document CHEMBL1133364, “Synthesis and activity of selective MMP inhibitors with an aryl backbone” (Bioorg Med Chem Lett, 2000):
pIC50: −log10 of the molar value.

Key:
[1] = target: 72 kDa type IV collagenase (Homo sapiens, UniProt P08253)
[2] = target: T1, Interstitial collagenase (Homo sapiens, UniProt P03956); test: 50 percent inhibition of human Matrix metalloprotease-1 by the cleavage of fluorogenic peptide MCA-Pro-Leu-Gly-Leu-Dpa-ala-Arg-NH2
T1 sequence (P03956 whole entry): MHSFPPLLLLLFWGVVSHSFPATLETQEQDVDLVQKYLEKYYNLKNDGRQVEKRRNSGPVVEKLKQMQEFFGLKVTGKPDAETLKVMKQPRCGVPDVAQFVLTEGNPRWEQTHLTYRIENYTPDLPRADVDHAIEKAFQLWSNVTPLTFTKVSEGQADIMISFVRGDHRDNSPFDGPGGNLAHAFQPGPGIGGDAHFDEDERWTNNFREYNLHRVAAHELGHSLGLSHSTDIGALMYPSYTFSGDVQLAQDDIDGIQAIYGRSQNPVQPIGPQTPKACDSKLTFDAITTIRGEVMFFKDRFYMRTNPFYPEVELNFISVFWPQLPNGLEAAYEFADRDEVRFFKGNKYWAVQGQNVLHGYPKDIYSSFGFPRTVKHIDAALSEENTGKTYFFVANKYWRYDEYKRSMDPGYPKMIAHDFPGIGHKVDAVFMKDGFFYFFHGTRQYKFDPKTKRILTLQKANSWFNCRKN

[3] = target: Collagenase 3 (Homo sapiens, UniProt P45452)

Chain of 72 kDa type IV collagenase (P08253 whole entry): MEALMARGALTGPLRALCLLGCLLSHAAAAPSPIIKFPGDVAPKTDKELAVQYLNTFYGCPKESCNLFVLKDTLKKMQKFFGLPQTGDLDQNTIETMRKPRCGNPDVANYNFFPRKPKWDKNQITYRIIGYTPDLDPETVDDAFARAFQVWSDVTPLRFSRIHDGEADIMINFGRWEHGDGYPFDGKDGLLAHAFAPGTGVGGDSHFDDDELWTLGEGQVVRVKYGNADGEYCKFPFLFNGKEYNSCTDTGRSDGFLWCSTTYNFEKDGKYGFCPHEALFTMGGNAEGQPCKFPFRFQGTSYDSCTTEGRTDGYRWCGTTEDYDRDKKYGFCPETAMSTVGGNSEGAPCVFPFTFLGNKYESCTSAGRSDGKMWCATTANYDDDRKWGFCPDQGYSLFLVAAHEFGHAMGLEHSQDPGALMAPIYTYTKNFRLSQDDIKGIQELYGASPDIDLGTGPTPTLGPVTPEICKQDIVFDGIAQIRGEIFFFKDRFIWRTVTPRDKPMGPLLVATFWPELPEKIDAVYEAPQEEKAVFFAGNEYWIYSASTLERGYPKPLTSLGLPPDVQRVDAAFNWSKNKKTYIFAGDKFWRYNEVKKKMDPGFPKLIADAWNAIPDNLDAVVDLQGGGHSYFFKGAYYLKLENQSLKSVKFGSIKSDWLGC

SMILES	pIC50 [1]	pIC50 [2]	pIC50 [3]
O=C(NO)c1c(F)cccc1S(=O)(=O)N1CCC(Oc2ccc(C(F)(F)F)cc2)CC1	8.48	–	–
O=C(NO)c1ccccc1S(=O)(=O)N1CCC(Oc2ccc(OC(F)(F)F)cc2)CC1	8.70	–	–
O=C(NO)c1ccccc1S(=O)(=O)N1CCC(Oc2ccc(C(F)(F)F)cc2)C1 (stereo not drawn)	–	< 5.00	–
O=C(NO)c1ccccc1S(=O)(=O)N1CCC(Oc2ccc(C(F)(F)F)cc2)CC1	–	–	7.55
O=C(NO)c1ccccc1S(=O)(=O)N1CCC(c2ccccc2)CC1	7.15	–	6.28
COc1ccc(C(=O)NC2CCN(S(=O)(=O)c3ccccc3C(=O)NO)C2)cc1 (single isomer, unassigned; (-))	–	< 5.00	–
O=C(NO)C1(CS(=O)(=O)c2ccc(Oc3ccc(Cl)cc3)cc2)CCOCC1 [CTS-1027]	–	6.10	–
